Entries after “also recorded” stand apart in the source; their conditions may differ.
What was measured:
[1] = system: LPS activated rat microglia cells; assay: TNF-alpha release from LPS activated rat primary microglia (ELISA); format: cell-based; conditions: for TNF-alpha release: rat primary microglia, 100 ng/ml LPS, compound 1 hr before LPS, supernatant 24 hrs post-LPS
Procedure: (§1) Rat microglia were prepared from two day old rat pups. Pup brains were removed and the meninges were gently removed. Once sufficient amount of brains were collected, brains were minced with a blunt scissors (10 times) and transferred to a 15ml conical tube with a pasteur pipette and titurated 25 times. Dissociated cells were then centrifuged at 1000 RPM for 10 minutes (RT). The supernatant was removed and 2 mls of fresh media was added. The resultant cell suspension was titurated 10 times. Following titration the cell suspension was plated in a T175 cm^2 culture flasks at a density of 4 brains per flask in 25 mls. MEM media was used for the experiments, supplemented with 10% FBS, 100 i.u.penicillin, 100 i.u.streptomycin and L-Glutamine. Microglia were isolated on day 14 by shaking on an orbital rotation shaker. The purity of the cultures was 98-100% as determined by immunostaining with ED-40 antibody.
(§2) Endotoxin (LPS) at a concentration of a 100 ng/ml were used for activation of rat microglia cells. This concentration had previously shown to be effective in inducing TNF-alpha and Nitrite release. All assays were performed in 48 well plates (Becton Dickinson) at ˜2×10^5 cells or 0.5×10^5 per 1 ml per well in 10% MEM media. Microglia cells were pre-incubated 1 hr prior to LPS challenge with either vehicle (0.1%DMSO) or test compound in DMEM containing 10%FBS (microglia) or RPMI containing 10%FBS (THP-1 monocytes). Supernatants from LPS activated rat microglia were collected at 24 hrs post-LPS challenge.
Collected supernatants were assayed for TNF-alpha using a Pharmingen OPtEIA Rat (microglia).

5-LOX = conditions: cited from earlier work
IκBα = assay: LPS mediated IκBα degradation in microglia (immunoblotting); format: cell-based, rat; conditions: 100 ng/ml LPS, 10μM ATFMK, 50μM L-655,238
Procedure: Immunoblotting was carried out as described previously (Parvathenani et al., 2000). Briefly 25μg of protein was fractionated on a 4-20% tris-glycine gel (NOVEX, Calif.) and transferred to PVDF membrane (NOVEX, Calif.). The membrane was probed with a polyclonal antibody specific for IκBα. To distinguish between the phosphorylated and non-phosphorylated forms of cPLA2, 50μg of protein was run on an 8% tris-glycine gel (Novex, Calif.) for 4.5 hours at 125V, transferred and probed with a monoclonal antibody specific for cPLA2.
Effects of cPLA2 and 5-LOX inhibitors on LPS mediated IκBα degradation. Microglia were treated with 100 ng/ml of LPS for various periods of time following which whole cell lysates were prepared and run on SDS-PAGE, transferred and probed with a IκBα antibody as mentioned in immunoblotting. (6A) 100 ng/ml LPS alone, (6B) LPS+10μM ATFMK, (6C) LPS+50μM L-655,238.

[2] = system: LPS activated rat microglia cells; assay: Nitrite (NO) release from LPS activated rat primary microglia (Modified Griess Reagent); format: cell-based; conditions: 100 ng/ml LPS, compound 1 hr before LPS, supernatant 24 hrs post-LPS
Procedure: as §1, §2
Nitrite assay was performed in a 96 well plate using a Modified Griess Reagent (Sigma). In brief, a 100 ul of Modified Griess Reagent was added to a 100 ul of collected supernatant. Samples were read at a wavelength of 540nm. All values were calculated against a NaNO2 standard curve.

NF-κB (p65) = assay: LPS mediated NF-κB (p65) nuclear translocation in microglia (indirect immunofluorescence); format: cell-based, rat; conditions: 100 ng/ml LPS, 5 min, 10μM ATFMK, 50μM L-655,238
Procedure: Cells were washed once with PBS, fixed and permeabilized with ice cold methanol (100%) for 5 minutes and washed 3× in PBS for 10 min. The cover slips were blocked for 1 hour in 10% serum/PBS (serum derived from animal in which secondary antibody was generated), incubated for 2-3 hours in primary antibody solution (1:50 dilution in 1.5% serum/PBS) and washed 3× in PBS for 10 min. Secondary antibody linked to fluorescein was applied for one hour (1:100 dilution in 1.5% serum/PBS) and washed 3× in PBS for 10 min. If the nucleus was stained, the cells were incubated for 15 minutes with DAPI (1:10000) at 37° C. and washed. The coverslips were then mounted onto glass slides using mounting media and viewed under a fluorescence microscope.
Effects of cPLA2 and 5-LOX inhibitors on LPS mediated NF-κB translocation. Microglia were treated with 100 ng/ml of LPS for various periods of time following which p65 distribution was assessed by indirect immunofluorescence (7A) control, (7B) LPS-5 min., (7C) LPS+10μM ATFMK—5 min., (7D) LPS+50μM L-655,238—5 min. (7E) LPS+NDGA-20μM—5 min.

COX = conditions: cited from earlier work
IκBα phosphorylation = conditions: irreversible inhibitor; read-out: IC50, inhibition of IκBα phosphorylation; cited from earlier work

SMILES | TNF-alpha release [1] | nitrite (NO) release [2] | other results
CS(=O)(=O)c1ccc(C2=C(c3ccccc3)C(=O)OC2)cc1 [rofecoxib] | failed to produce any reduction in TNF-alpha release | – | pro-inflammatory release on activated microglia [1]: no significant effect
CCCCCC(O)c1ccc(Cc2cnc3ccccc3c2)cc1 (stereo not drawn) [para-REV5901, α-pentyl-4-(3-quinolinylmethyl)benzenemethanol] | dose dependently inhibited TNF-alpha release and nitrite to near control levels; also recorded: significantly inhibited TNF-alpha release | dose dependently inhibited TNF-alpha release and nitrite to near control levels; also recorded: significantly inhibited nitrite release | IC50 (5-LOX): 0.1 µM; degradation of IκBα following LPS stimulation (IκBα): attenuated the degradation of IκBα; translocation of NF-κB into the nucleus (NF-κB (p65)): delayed the translocation of NF-κB into the nucleus
Cc1ccc(-c2cc(C(F)(F)F)nn2-c2ccc(S(N)(=O)=O)cc2)cc1 [celecoxib] | – | – | pro-inflammatory release on activated microglia [1]: no significant effect
CCCCC/C=C\C/C=C\C/C=C\C/C=C\CCCC(=O)C(F)(F)F [ATFMK, arachidonyltrifluoromethyl ketone] | significant dose-dependent inhibition; also recorded: significantly inhibited TNF-alpha release | significant dose-dependent inhibition; also recorded: significantly inhibited nitrite release | degradation of IκBα following LPS stimulation (IκBα): attenuated the degradation of IκBα; translocation of NF-κB into the nucleus (NF-κB (p65)): delayed the translocation of NF-κB into the nucleus
CC(Cc1ccc(O)c(O)c1)C(C)Cc1ccc(O)c(O)c1 (centres unmarked) [NDGA, nordihdroguaiaretic acid] | dose dependently inhibited TNF-alpha release and nitrite to near control levels; also recorded: significantly inhibited TNF-alpha release | dose dependently inhibited TNF-alpha release and nitrite to near control levels | IC50 (5-LOX): […]; IC50 (COX): 100 µM
O=C(CCc1ccc(OCCS(=O)(=O)CCOC(c2ccc(Cl)cc2)c2ccc(Cl)cc2)cc1)C(F)(F)F [BMS 229724] | significant dose-dependent inhibition | significant dose-dependent inhibition | TNF-alpha release ([1]; listed as BMS-229724): significantly inhibited TNF-alpha release
CC(C)Cc1ccc(C(C)C(=O)O)cc1 (centres unmarked) [Ibuprofen] | failed to produce any reduction in TNF-alpha release | – | –
CC(C)(C)c1ccc(S(=O)(=O)/C=C/C#N)cc1 [BAY 11-7085, (E)3-((4-t-Butylphenyl)sulfonyl)-2-propenenitrile] | inhibited LPS induced TNFα and NO release to control levels | inhibited LPS induced TNFα and NO release to control levels | IC50 (IκBα phosphorylation): 10 µM
